Measurements published in the CheMixHub viscosity set.

Test: xn = mol fraction of the nth substance listed

CCCCCCO + CCCCCCCC
viscosity [mPa·s]
Details | 293.15 K | 298.15 K | 303.15 K | 308.15 K | 313.15 K
100 kPa, x2 = 0.0423 | 4.68 | 4.014 | 3.464 | 3.004 | 2.618
100 kPa, x2 = 0.0824 | 4.117 | 3.546 | 3.072 | 2.675 | 2.34
100 kPa, x2 = 0.1636 | 3.198 | 2.775 | 2.423 | 2.126 | 1.876
100 kPa, x2 = 0.2691 | 2.319 | 2.037 | 1.8 | 1.599 | 1.426
100 kPa, x2 = 0.3407 | 1.877 | 1.663 | 1.482 | 1.327 | 1.193
100 kPa, x2 = 0.3897 | 1.634 | 1.457 | 1.306 | 1.176 | 1.064
100 kPa, x2 = 0.4731 | 1.303 | 1.176 | 1.065 | 0.969 | 0.884
100 kPa, x2 = 0.5241 | 1.148 | 1.043 | 0.95 | 0.869 | 0.797
100 kPa, x2 = 0.5779 | 1.011 | 0.925 | 0.848 | 0.779 | 0.718
100 kPa, x2 = 0.6611 | 0.851 | 0.785 | 0.725 | 0.671 | 0.622
100 kPa, x2 = 0.753 | 0.719 | 0.667 | 0.62 | 0.577 | 0.537
100 kPa, x2 = 0.8903 | 0.582 | 0.543 | 0.508 | 0.475 | 0.445
100 kPa, x2 = 0.9572 | 0.533 | 0.502 | 0.468 | 0.438 | 0.411
100 kPa, x2 = 0.9715 | 0.524 | 0.491 | 0.461 | 0.432 | 0.406
101.33 kPa, x2 = 0.051 | – | 4.054 | – | – | –
101.33 kPa, x2 = 0.1118 | – | 3.29 | – | – | –
101.33 kPa, x2 = 0.1835 | – | 2.593 | – | – | –
101.33 kPa, x2 = 0.3569 | – | 1.552 | – | – | –
101.33 kPa, x2 = 0.5094 | – | 1.074 | – | – | –
101.33 kPa, x2 = 0.5642 | – | 0.955 | – | – | –
101.33 kPa, x2 = 0.6167 | – | 0.857 | – | – | –
101.33 kPa, x2 = 0.6701 | – | 0.77 | – | – | –
101.33 kPa, x2 = 0.7288 | – | 0.686 | – | – | –
101.33 kPa, x2 = 0.8387 | – | 0.566 | – | – | –
101.33 kPa, x2 = 0.937 | – | 0.511 | – | – | –

O=C1CCCCC1 + CCCCCCCC
viscosity [mPa·s]
Details | 298.15 K | 303.15 K | 308.15 K
101 kPa, x2 = 0.0833 | 1.59 | – | –
101 kPa, x2 = 0.1727 | 1.31 | – | –
101 kPa, x2 = 0.3177 | 1.023 | – | –
101 kPa, x2 = 0.4682 | 0.829 | – | –
101 kPa, x2 = 0.6244 | 0.693 | – | –
101 kPa, x2 = 0.7825 | 0.602 | – | –
101 kPa, x2 = 0.8935 | 0.55 | – | –
101.33 kPa, x1 = 0.0981 | 0.537 | 0.505 | 0.479
101.33 kPa, x1 = 0.2053 | 0.583 | 0.547 | 0.516
101.33 kPa, x1 = 0.3022 | 0.635 | 0.595 | 0.559
101.33 kPa, x1 = 0.4042 | 0.706 | 0.658 | 0.618
101.33 kPa, x1 = 0.5032 | 0.787 | 0.733 | 0.686
101.33 kPa, x1 = 0.603 | 0.895 | 0.831 | 0.774
101.33 kPa, x1 = 0.7025 | 1.039 | 0.96 | 0.894
101.33 kPa, x1 = 0.8021 | 1.264 | 1.165 | 1.054
101.33 kPa, x1 = 0.8984 | 1.508 | 1.38 | 1.271

CC(=O)CC(C)C + CCCCCCCCCO
viscosity [mPa·s], 100 kPa
Details | x1 = 0.0834 | x1 = 0.1721 | x1 = 0.2398 | x1 = 0.3469 | x1 = 0.4365 | x1 = 0.5577 | x1 = 0.6608 | x1 = 0.7339 | x1 = 0.8594 | x1 = 0.9502
293.15 K | 9.91 | 8.52 | 7.62 | 6.42 | 5.48 | 4.28 | 3.31 | 2.64 | 1.6 | 0.93
303.15 K | 6.85 | 5.94 | 5.34 | 4.49 | 3.86 | 3.05 | 2.42 | 1.99 | 1.27 | 0.78
313.15 K | 4.92 | 4.29 | 3.87 | 3.27 | 2.82 | 2.27 | 1.82 | 1.51 | 1 | 0.65
323.15 K | 3.63 | 3.18 | 2.88 | 2.45 | 2.13 | 1.73 | 1.4 | 1.18 | 0.81 | 0.55

CC(=O)CC(C)C + CS(C)=O
303.15 K, 101 kPa
Details | viscosity [mPa·s]
x2 = 0.1332 | 0.6376
x2 = 0.257 | 0.7283
x2 = 0.3722 | 0.8149
x2 = 0.4798 | 0.9229
x2 = 0.5804 | 1.042
x2 = 0.6748 | 1.16
x2 = 0.7635 | 1.306
